SMILES strings stand for the structures. Counter-ions that a name gives are not always drawn. Like-named read-outs stand apart in the source and are kept apart here.

In the assay the target is T1, hNaV1.7 (Homo sapiens, UniProt Q15858).
T1 construct: expressed in transfected cells; host or cells: HEK293
In words: QPatch NaV1.7 assay (whole-cell patch clamp, QPatch16x). The format is cell-based. The following applies: HEK293-hNaV1.7 cells. The method, then:
The compounds of the invention were tested in a QPatch NaV1.7 assay.
HEK293-hNaV1.7 cells were grown in DMEM-F12+10% FBS culture media at 37° C. At a confluency of 50-70% cells were dissociated from culture flasks & triturated to ensure unicellular cell suspension; cell density was measured & adjusted to 2-3×10^6 cells/ml. Recordings were obtained using QPatch16x. The external solution was (in mM): NaCl, 128; KCl, 5; MgCl2, 2; CaCl2, 2; Glucose, 30; HEPES, 15; pH 7.3, 305-315 mOsm. Following seal formation and whole-cell access using internal solution (containing in mM: CsF, 135; EGTA/CsOH, 1/5; HEPES 10; NaCl, 10; pH 7.3, 310-320 mOsM), voltage pulse protocols were applied. Initially a steady state inactivation voltage protocol was used to determine the half-maximal voltage for steady state inactivation (V1/2 SSI). Two holding voltages were used to determine test drug inhibition: −90 mV, where most of the channels are in a closed state; and V1/2 SSI, where half of the channels are inactivated. Currents were elicited […] by stepping to a membrane potential of 0 mV for 20 ms. Four-point cumulative concentration responses were derived by determining the peak current amplitude at each concentration of test drug over 120 second application. Curves were fitted with the Hill equation yielding pIC50 values at −90 mV and V1/2 SSI holding potentials.
For orientation: In patch-clamp work, channel activity is measured electrically.

Where [1] appears, read: holding voltage V1/2 SSI (half of channels inactivated), read-out: QP Nav1.7 SSI vhalf pIC50 (converted).
Setting [2] is: holding voltage −90 mV (most channels closed), read-out: QP Nav1.7 −90 mV pIC50 (converted).

T1 sequence (Q15858 whole entry): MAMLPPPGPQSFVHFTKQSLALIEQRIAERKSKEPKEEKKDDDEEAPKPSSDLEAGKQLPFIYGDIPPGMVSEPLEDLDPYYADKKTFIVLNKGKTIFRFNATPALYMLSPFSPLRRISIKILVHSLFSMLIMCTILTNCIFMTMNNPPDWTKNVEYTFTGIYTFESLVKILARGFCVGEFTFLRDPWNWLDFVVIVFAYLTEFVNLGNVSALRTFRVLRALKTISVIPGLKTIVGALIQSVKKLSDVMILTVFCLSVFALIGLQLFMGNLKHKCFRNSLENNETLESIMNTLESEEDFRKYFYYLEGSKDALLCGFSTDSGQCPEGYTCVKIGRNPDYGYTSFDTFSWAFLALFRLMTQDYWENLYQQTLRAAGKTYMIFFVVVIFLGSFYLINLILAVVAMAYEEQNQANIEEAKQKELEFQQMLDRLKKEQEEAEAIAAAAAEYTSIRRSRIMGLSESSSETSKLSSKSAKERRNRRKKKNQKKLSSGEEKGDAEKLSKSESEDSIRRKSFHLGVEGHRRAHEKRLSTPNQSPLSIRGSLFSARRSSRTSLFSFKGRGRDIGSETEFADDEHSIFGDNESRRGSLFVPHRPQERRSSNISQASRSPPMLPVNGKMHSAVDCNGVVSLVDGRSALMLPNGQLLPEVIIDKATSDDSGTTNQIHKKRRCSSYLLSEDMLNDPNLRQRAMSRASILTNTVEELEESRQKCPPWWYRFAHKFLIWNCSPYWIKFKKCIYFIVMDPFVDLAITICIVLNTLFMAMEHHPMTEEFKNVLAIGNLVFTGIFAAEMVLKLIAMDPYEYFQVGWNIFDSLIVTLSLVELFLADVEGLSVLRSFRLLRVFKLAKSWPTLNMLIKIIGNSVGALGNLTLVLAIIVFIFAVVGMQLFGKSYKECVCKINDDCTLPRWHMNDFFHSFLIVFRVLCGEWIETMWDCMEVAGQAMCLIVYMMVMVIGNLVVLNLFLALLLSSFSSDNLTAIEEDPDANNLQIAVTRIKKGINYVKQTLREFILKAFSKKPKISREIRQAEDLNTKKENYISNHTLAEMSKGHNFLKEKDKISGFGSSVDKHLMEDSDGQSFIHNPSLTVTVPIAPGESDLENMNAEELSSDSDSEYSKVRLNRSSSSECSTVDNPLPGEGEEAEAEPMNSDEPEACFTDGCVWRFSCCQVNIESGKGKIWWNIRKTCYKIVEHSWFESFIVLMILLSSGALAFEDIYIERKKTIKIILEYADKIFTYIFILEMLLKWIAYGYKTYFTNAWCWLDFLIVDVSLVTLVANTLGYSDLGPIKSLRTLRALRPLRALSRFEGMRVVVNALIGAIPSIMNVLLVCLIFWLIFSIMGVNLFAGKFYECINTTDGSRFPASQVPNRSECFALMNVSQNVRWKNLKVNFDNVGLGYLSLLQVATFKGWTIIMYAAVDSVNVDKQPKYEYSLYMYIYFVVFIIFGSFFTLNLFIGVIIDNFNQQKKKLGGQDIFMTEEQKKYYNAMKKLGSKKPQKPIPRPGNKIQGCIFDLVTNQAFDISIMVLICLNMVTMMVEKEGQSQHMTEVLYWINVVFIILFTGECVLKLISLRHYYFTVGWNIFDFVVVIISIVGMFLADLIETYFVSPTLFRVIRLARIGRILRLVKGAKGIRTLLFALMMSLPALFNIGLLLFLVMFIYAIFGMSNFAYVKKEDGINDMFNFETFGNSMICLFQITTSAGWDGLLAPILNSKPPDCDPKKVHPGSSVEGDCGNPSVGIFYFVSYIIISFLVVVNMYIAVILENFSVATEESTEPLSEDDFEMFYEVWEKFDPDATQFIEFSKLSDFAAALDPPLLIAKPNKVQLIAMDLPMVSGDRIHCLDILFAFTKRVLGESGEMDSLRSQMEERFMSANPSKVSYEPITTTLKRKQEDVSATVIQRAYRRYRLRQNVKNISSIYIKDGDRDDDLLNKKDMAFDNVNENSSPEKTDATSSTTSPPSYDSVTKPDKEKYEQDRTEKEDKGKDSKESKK

`O=C1NCCC[C@@]12CC[C@@H](c1cc(-c3ccc(C(F)(F)F)cc3)ccn1)N2` [Example 48, (2S,5R)-2-[4-(4-Trifluoromethyl-phenyl)-pyridin-2-yl]-1,7-diaza-spiro[4.5]decan-6-one hydrochloride]: the IC50 was 2 µM under setting [1] and 25.1 µM under setting [2].
For `O=C1NCCC[C@@]12CC[C@H](c1cc(-c3ccc(C(F)(F)F)cc3)ccn1)N2` [Example 49, (2R,5R)-2-[4-(4-Trifluoromethyl-phenyl)-pyridin-2-yl]-1,7-diaza-spiro[4.5]decan-6-one hydrochloride] the same measures were 3.98 µM and 50.1 µM.
For `O=C1NCCC[C@]12CC[C@H](c1cc(-c3ccc(C(F)(F)F)cc3)ccn1)N2` [Example 50, (2R,5S)-2-[4-(4-Trifluoromethyl-phenyl)-pyridin-2-yl]-1,7-diaza-spiro[4.5]decan-6-one hydrochloride] the same measures were 0.251 µM and 2.51 µM.
For `O=C1NCCC[C@]12CC[C@@H](c1cc(-c3ccc(C(F)(F)F)cc3)ccn1)N2` [Example 51, (25,5S)-2-[4-(4-Trifluoromethyl-phenyl)-pyridin-2-yl]-1,7-diaza-spiro[4.5]decan-6-one hydrochloride], the IC50 under setting [1] is 5.01 µM and the IC50 under setting [2] is 25.1 µM.
Consider `CN1CC[C@@]2(CC[C@H](c3cc(-c4ccc(C(F)(F)F)cc4)ccn3)N2)C1=O` [Example 52, (2R,5S)-7-Methyl-2-[4-(4-trifluoromethyl-phenyl)-pyridin-2-yl]-1,7-diaza-spiro[4.4]nonan-6-one hydrochloride], for which the IC50 runs as follows: under setting [1], 6.31 µM; under setting [2], 25.1 µM.
For `CN1CC[C@@]2(CC[C@@H](c3cc(-c4ccc(C(F)(F)F)cc4)ccn3)N2)C1=O` [Example 53, (2S,5S)-7-Methyl-2-[4-(4-trifluoromethyl-phenyl)-pyridin-2-yl]-1,7-diaza-spiro[4.4]nonan-6-one hydrochloride] the same measures were 39.8 µM and 100 µM.
`CN1CC[C@]2(CC[C@@H](c3cc(-c4ccc(C(F)(F)F)cc4)ccn3)N2)C1=O` [Example 54, (2S,5R)-7-Methyl-2-[4-(4-trifluoromethyl-phenyl)-pyridin-2-yl]-1,7-diaza-spiro[4.4]nonan-6-one hydrochloride]: the IC50 was 39.8 µM under setting [1] and 63.1 µM under setting [2].
Take `CN1CC[C@]2(CC[C@H](c3cc(-c4ccc(C(F)(F)F)cc4)ccn3)N2)C1=O` [Example 55, (2R,5R)-7-Methyl-2-[4-(4-trifluoromethyl-phenyl)-pyridin-2-yl]-1,7-diaza-spiro[4.4]nonan-6-one hydrochloride]: the IC50 under setting [1] is 20 µM and the IC50 under setting [2] is 100 µM.
For `Cc1cc(-c2ccc(F)cc2)cc([C@@H]2CC[C@]3(CCN(C)C3=O)N2)n1` [Example 56, (2S,5R)-2-[4-(4-Fluorophenyl)-6-methyl-2-pyridyl]-7-methyl-1,7-diazaspiro[4.4]nonan-6-one hydrochloride] the same measures were 10 µM and 79.4 µM.
For `Cc1cc(-c2ccc(F)cc2)cc([C@H]2CC[C@@]3(CCN(C)C3=O)N2)n1` [Example 57, (2R,5S)-2-[4-(4-Fluorophenyl)-6-methyl-2-pyridyl]-7-methyl-1,7-diazaspiro[4.4]nonan-6-one hydrochloride] the same measures were 3.98 µM and 79.4 µM.
In the same order, the values of `CN1CC[C@@]2(CC[C@H](c3cc(-c4ccc(C(F)(F)F)cc4)c(F)cn3)N2)C1=O` [Example 58, (2R,5S)-2-[5-Fluoro-4-[4-(trifluoromethyl)phenyl]-2-pyridyl]-7-methyl-1,7-diazaspiro[4.4]nonan-6-one hydrochloride] are 1.26 µM and 63.1 µM.
In the case of `CN1CC[C@@]2(CC[C@@H](c3cc(-c4ccc(C(F)(F)F)cc4)c(F)cn3)N2)C1=O` [Example 59, (2S,5S)-2-[5-Fluoro-4-[4-(trifluoromethyl)phenyl]-2-pyridyl]-7-methyl-1,7-diazaspiro[4.4]nonan-6-one hydrochloride], the IC50 is, setting by setting: under setting [1], 3.16 µM; under setting [2], 100 µM.
In the same order, the values of `CN1CC[C@]2(CC[C@@H](c3cc(-c4ccc(C(F)(F)F)cc4)c(F)cn3)N2)C1=O` [Example 60, (2S,5R)-2-[5-Fluoro-4-[4-(trifluoromethyl)phenyl]-2-pyridyl]-7-methyl-1,7-diazaspiro[4.4]nonan-6-one hydrochloride] are 3.98 µM and 79.4 µM.
Regarding `CN1CC[C@]2(CC[C@H](c3cc(-c4ccc(C(F)(F)F)cc4)c(F)cn3)N2)C1=O` [Example 61, (2R,5R)-2-[5-Fluoro-4-[4-(trifluoromethyl)phenyl]-2-pyridyl]-7-methyl-1,7-diazaspiro[4.4]nonan-6-one hydrochloride], the IC50 is, setting by setting: under setting [1], 6.31 µM; under setting [2], 100 µM.
For `CN1CC[C@@]2(CC[C@H](c3cc(-c4ccc(C(F)(F)F)cc4)c(OC(C)(C)C)cn3)N2)C1=O` [Example 62, (2R,5S)-2-[5-tert-Butoxy-4-[4-(trifluoromethyl)-phenyl]-2-pyridyl]-7-methyl-1,7-diazaspiro[4.4]nonan-6-one hydrochloride] the same measures were 2 µM and 79.4 µM.
As to `CN1CC[C@@]2(CC[C@@H](c3cc(-c4ccc(C(F)(F)F)cc4)c(OC(C)(C)C)cn3)N2)C1=O` [Example 63, (2S,5S)-2-[5-tert-Butoxy-4-[4-(trifluoromethyl)-phenyl]-2-pyridyl]-7-methyl-1,7-diazaspiro[4.4]nonan-6-one hydrochloride], the IC50 under setting [1] is 10 µM and the IC50 under setting [2] was 79.4 µM.
For `CN1CC[C@]2(CC[C@@H](c3cc(-c4ccc(C(F)(F)F)cc4)c(OC(C)(C)C)cn3)N2)C1=O` [Example 64, (2S,5R)-2-[5-tert-Butoxy-4-[4-(trifluoromethyl)-phenyl]-2-pyridyl]-7-methyl-1,7-diazaspiro[4.4]nonan-6-one hydrochloride] the same measures were 3.16 µM and 50.1 µM.
For `CN1CC[C@]2(CC[C@H](c3cc(-c4ccc(C(F)(F)F)cc4)c(OC(C)(C)C)cn3)N2)C1=O` [Example 65, (2R,5R)-2-[5-tert-Butoxy-4-[4-(trifluoromethyl)-phenyl]-2-pyridyl]-7-methyl-1,7-diazaspiro[4.4]nonan-6-one hydrochloride] the same measures were 1.58 µM and 31.6 µM.
In the same order, the values of `CN1CC[C@@]2(CC[C@H](c3cc(-c4ccc(F)cc4)ccn3)N2)C1=O` [Example 66, (2R,5S)-2-[4-(4-Fluorophenyl)-2-pyridyl]-7-methyl-1,7-diazaspiro[4.4]nonan-6-one hydrochloride] are 10 µM and 126 µM.
With `CN1CCC[C@@]2(CC[C@H](c3cc(-c4ccc(C(F)(F)F)cc4)ccn3)N2)C1=O` [Example 67, (2R,5R)-7-Methyl-2-[4-(4-trifluoromethyl-phenyl)-pyridin-2-yl]-1,7-diaza-spiro[4.5]decan-6-one hydrochloride], the IC50 runs as follows: under setting [1], 3.98 µM; under setting [2], 31.6 µM.
Take `CN1CCC[C@@]2(CC[C@@H](c3cc(-c4ccc(C(F)(F)F)cc4)ccn3)N2)C1=O` [Example 68, (2S,5R)-7-Methyl-2-[4-(4-trifluoromethyl-phenyl)-pyridin-2-yl]-1,7-diaza-spiro[4.5]decan-6-one hydrochloride]: the IC50 reads like this: under setting [1], 5.01 µM; under setting [2], 25.1 µM.
In the same order, the values of `CN1CCC[C@]2(CC[C@@H](c3cc(-c4ccc(C(F)(F)F)cc4)ccn3)N2)C1=O` [Example 69, (2S,5S)-7-Methyl-2-[4-(4-trifluoromethyl-phenyl)-pyridin-2-yl]-1,7-diaza-spiro[4.5]decan-6-one hydrochloride] are 7.94 µM and 31.6 µM.
In the same order, the values of `CN1CCC[C@]2(CC[C@H](c3cc(-c4ccc(C(F)(F)F)cc4)ccn3)N2)C1=O` [Example 70, (2R,5S)-7-Methyl-2-[4-(4-trifluoromethyl-phenyl)-pyridin-2-yl]-1,7-diaza-spiro[4.5]decan-6-one hydrochloride] are 1 µM and 12.6 µM.
For the molecule `CN1CCC[C@@]2(CC[C@H](c3cc(-c4ccc(F)cc4)ccn3)N2)C1=O` [Example 71, (2R,5R)-2-[4-(4-Fluoro-phenyl)-pyridin-2-yl]-7-methyl-1,7-diaza-spiro[4.5]decan-6-one hydrochloride], the IC50 under setting [1] was 20 µM and the IC50 under setting [2] is 126 µM.
On to `CN1CCC[C@@]2(CC[C@@H](c3cc(-c4ccc(F)cc4)ccn3)N2)C1=O` [Example 72, (2S,5R)-2-[4-(4-Fluoro-phenyl)-pyridin-2-yl]-7-methyl-1,7-diaza-spiro[4.5]decan-6-one hydrochloride], for which the IC50 runs as follows: under setting [1], 20 µM; under setting [2], 158 µM.
Regarding `CN1CCC[C@]2(CC[C@@H](c3cc(-c4ccc(F)cc4)ccn3)N2)C1=O` [Example 73, (2S,5S)-2-[4-(4-Fluoro-phenyl)-pyridin-2-yl]-7-methyl-1,7-diaza-spiro[4.5]decan-6-one hydrochloride], the IC50 reads like this: under setting [1], 20 µM; under setting [2], 200 µM.
